Experimental data: ChEMBL document CHEMBL1201862, “PubChem BioAssay data set” (2004)
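Grown in 96-well plates, cells were treated for 48 hours with each compound at five concentrations. Insufficient inhibition: endpoint recorded as highest concentration tested. At the GI50, growth is halved.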 Activity calls are given as the source filed them. Rule as the data show it: active = GI50 up to about 1.1 µM and inactive = higher.

Experiments:
Experiment in all cases: DTP human tumour cell line panel, 48 h
LOX IMVI = test system: LOX IMVI
PC-3 = test system: PC-3
MOLT-4 = test system: MOLT-4
SNB-19 = test system: SNB-19
CCRF-CEM = test system: CCRF-CEM
SK-MEL-2 = test system: SK-MEL-2
BT-549 = test system: BT-549
SW-620 = test system: SW-620
T47D = test system: T47D
SK-MEL-28 = test system: SK-MEL-28
MDA-MB-435 = test system: MDA-MB-435
Hs-578T = test system: Hs-578T
A549 = test system: A549
NCI/ADR-RES = test system: NCI/ADR-RES
SN12C = test system: SN12C
SNB-75 = test system: SNB-75
HT-29 = test system: HT-29
K562 = test system: K562
NCI-H226 = test system: NCI-H226
ACHN = test system: ACHN
A498 = test system: A498
M14 = test system: M14
COLO 205 = test system: COLO 205
UACC-62 = test system: UACC-62
NCI-H23 = test system: NCI-H23
MDA-MB-231 = test system: MDA-MB-231
786-0 = test system: 786-0
HCT-15 = test system: HCT-15
HL-60 = test system: HL-60
MCF7 = test system: MCF7
KM12 = test system: KM12
SR = test system: SR
SK-OV-3 = test system: SK-OV-3
NCI-H460 = test system: NCI-H460
HOP-92 = test system: HOP-92
UACC-257 = test system: UACC-257
OVCAR-5 = test system: OVCAR-5
IGROV-1 = test system: IGROV-1
SK-MEL-5 = test system: SK-MEL-5
HCT-116 = test system: HCT-116
CAKI-1 = test system: CAKI-1
SF-539 = test system: SF-539
DU-145 = test system: DU-145
U-251 = test system: U-251
OVCAR-8 = test system: OVCAR-8
RXF 393 = test system: RXF 393
HCC 2998 = test system: HCC 2998
SF-268 = test system: SF-268
RPMI-8226 = test system: RPMI-8226
HOP-62 = test system: HOP-62
OVCAR-4 = test system: OVCAR-4
OVCAR-3 = test system: OVCAR-3
TK-10 = test system: TK-10
SF-295 = test system: SF-295
UO-31 = test system: UO-31
EKVX = test system: EKVX
Malme-3M = test system: Malme-3M
NCI-H522 = test system: NCI-H522

For `C=CCc1cccc2cc(C(=O)Nc3ccccn3)c(=N)oc12`, the GI50 (LOX IMVI) was > 100 µM (inactive), the GI50 (PC-3) was > 100 µM (inactive) and the GI50 (MOLT-4) was > 100 µM (inactive). For the same molecule, the GI50 (SNB-19) was > 100 µM (inactive), the GI50 (CCRF-CEM) was > 100 µM (inactive) and the GI50 (SK-MEL-2) was > 100 µM (inactive). The GI50 (BT-549) was > 100 µM (inactive), the GI50 (SW-620) was > 100 µM (inactive) and the GI50 (T47D) was 55.5 µM (inactive). The GI50 (SK-MEL-28) was > 100 µM (inactive), the GI50 (MDA-MB-435) was > 100 µM (inactive) and the GI50 (Hs-578T) was > 100 µM (inactive). The GI50 (A549) was > 100 µM (inactive), the GI50 (NCI/ADR-RES) was > 100 µM (inactive) and the GI50 (SN12C) was > 100 µM (inactive). For the same molecule, the GI50 (SNB-75) was > 100 µM (inactive), the GI50 (HT-29) was > 100 µM (inactive) and the GI50 (K562) was > 100 µM (inactive). The GI50 (NCI-H226) was > 100 µM (inactive), the GI50 (ACHN) was 45.4 µM (inactive) and the GI50 (A498) was > 100 µM (inactive). The GI50 (M14) was > 100 µM (inactive), the GI50 (COLO 205) was > 100 µM (inactive) and the GI50 (UACC-62) was > 100 µM (inactive). The GI50 (NCI-H23) was > 100 µM (inactive), the GI50 (MDA-MB-231) was > 100 µM (inactive) and the GI50 (786-0) was 28.7 µM (inactive). The GI50 (HCT-15) was > 100 µM, the GI50 (HL-60) was > 100 µM (inactive) and the GI50 (MCF7) was > 100 µM (inactive). The GI50 (KM12) was > 100 µM (inactive), the GI50 (SR) was > 100 µM (inactive) and the GI50 (SK-OV-3) was > 100 µM (inactive). The GI50 (NCI-H460) was > 100 µM (inactive), the GI50 (HOP-92) was > 100 µM (inactive) and the GI50 (UACC-257) was > 100 µM (inactive). The GI50 (OVCAR-5) was > 100 µM (inactive), the GI50 (IGROV-1) was > 100 µM (inactive) and the GI50 (SK-MEL-5) was > 100 µM (inactive). For the same molecule, the GI50 (HCT-116) was 56.6 µM (inactive), the GI50 (CAKI-1) was > 100 µM (inactive) and the GI50 (SF-539) was 92.5 µM (inactive). For the same molecule, the GI50 (DU-145) was > 100 µM (inactive), the GI50 (U-251) was > 100 µM (inactive) and the GI50 (OVCAR-8) was > 100 µM (inactive). The GI50 (RXF 393) was > 100 µM (inactive), the GI50 (HCC 2998) was > 100 µM (inactive) and the GI50 (SF-268) was > 100 µM (inactive). For the same molecule, the GI50 (RPMI-8226) was > 100 µM (inactive), the GI50 (HOP-62) was > 100 µM (inactive) and the GI50 (OVCAR-4) was > 100 µM (inactive). The GI50 (OVCAR-3) was > 100 µM (inactive).
`Cc1cc([C@H](C#N)c2nc3ccccc3[nH]2)nc(Cl)n1` was tested, and the GI50 (LOX IMVI) was 38.8 µM (inactive), the GI50 (PC-3) was 30.9 µM (inactive) and the GI50 (MOLT-4) was > 100 µM (inactive). For the same molecule, the GI50 (SNB-19) was 71.6 µM (inactive), the GI50 (CCRF-CEM) was 30.8 µM (inactive) and the GI50 (SK-MEL-2) was 26.5 µM (inactive). For the same molecule, the GI50 (BT-549) was 53.6 µM (inactive), the GI50 (SW-620) was 24.2 µM (inactive) and the GI50 (T47D) was 21.3 µM (inactive). For the same molecule, the GI50 (SK-MEL-28) was 39.1 µM (inactive), the GI50 (MDA-MB-435) was 30.4 µM (inactive) and the GI50 (Hs-578T) was > 100 µM (inactive). The GI50 (A549) was 33.9 µM (inactive), the GI50 (NCI/ADR-RES) was 30.1 µM (inactive) and the GI50 (SN12C) was 51.2 µM (inactive). For the same molecule, the GI50 (SNB-75) was 31 µM (inactive), the GI50 (HT-29) was 41.7 µM (inactive) and the GI50 (K562) was > 100 µM (inactive). For the same molecule, the GI50 (NCI-H226) was 48 µM (inactive), the GI50 (ACHN) was 38.2 µM (inactive) and the GI50 (A498) was 41.8 µM (inactive). The GI50 (COLO 205) was 42.1 µM (inactive), the GI50 (UACC-62) was 22.3 µM (inactive) and the GI50 (NCI-H23) was 30.1 µM (inactive). For the same molecule, the GI50 (MDA-MB-231) was 59.3 µM (inactive), the GI50 (786-0) was 54.5 µM (inactive) and the GI50 (HCT-15) was 25.8 µM. For the same molecule, the GI50 (TK-10) was 61.1 µM (inactive), the GI50 (HL-60) was 19.2 µM (inactive) and the GI50 (MCF7) was 41.8 µM (inactive). The GI50 (SF-295) was > 100 µM (inactive), the GI50 (KM12) was 14.9 µM (inactive) and the GI50 (SR) was 54.8 µM (inactive). For the same molecule, the GI50 (SK-OV-3) was > 100 µM (inactive), the GI50 (UO-31) was 35.6 µM (inactive) and the GI50 (NCI-H460) was 24.5 µM (inactive). The GI50 (HOP-92) was 20.1 µM (inactive), the GI50 (UACC-257) was 26.5 µM (inactive) and the GI50 (IGROV-1) was 54.5 µM (inactive). For the same molecule, the GI50 (SK-MEL-5) was 13.7 µM (inactive), the GI50 (HCT-116) was 37.8 µM (inactive) and the GI50 (EKVX) was 62.2 µM (inactive). For the same molecule, the GI50 (CAKI-1) was 98.4 µM (inactive), the GI50 (SF-539) was 61.9 µM (inactive) and the GI50 (Malme-3M) was 77.3 µM (inactive). For the same molecule, the GI50 (DU-145) was 30.6 µM (inactive), the GI50 (U-251) was 23.6 µM (inactive) and the GI50 (OVCAR-8) was 30.4 µM (inactive). The GI50 (RXF 393) was 33.3 µM (inactive), the GI50 (HCC 2998) was 20.3 µM (inactive) and the GI50 (SF-268) was > 100 µM (inactive). For the same molecule, the GI50 (RPMI-8226) was 5.65 µM (inactive) and the GI50 (OVCAR-4) was 40.4 µM (inactive).
For `CCOC(=O)C(Br)(C(N)=O)C1(O)OC(c2ccccc2)=C(Br)C1=O` (centres undefined), the GI50 (LOX IMVI) was 21.3 µM (inactive), the GI50 (PC-3) was 19.2 µM (inactive) and the GI50 (SNB-19) was > 100 µM (inactive). For the same molecule, the GI50 (CCRF-CEM) was 2.65 µM (inactive), the GI50 (SK-MEL-2) was 42.3 µM (inactive) and the GI50 (BT-549) was 19.2 µM (inactive). For the same molecule, the GI50 (SW-620) was 20 µM (inactive), the GI50 (T47D) was 24.3 µM (inactive) and the GI50 (SK-MEL-28) was 80.9 µM (inactive). For the same molecule, the GI50 (MDA-MB-435) was 30.5 µM (inactive), the GI50 (Hs-578T) was 50.7 µM (inactive) and the GI50 (A549) was 26.2 µM (inactive). For the same molecule, the GI50 (NCI/ADR-RES) was 60.3 µM (inactive), the GI50 (SN12C) was 17.2 µM (inactive) and the GI50 (HT-29) was 20.7 µM (inactive). The GI50 (K562) was 22.4 µM (inactive), the GI50 (NCI-H226) was 19.2 µM (inactive) and the GI50 (ACHN) was 17.5 µM (inactive). The GI50 (A498) was > 100 µM (inactive), the GI50 (M14) was 28.4 µM (inactive) and the GI50 (COLO 205) was 17 µM (inactive). For the same molecule, the GI50 (UACC-62) was 27.8 µM (inactive), the GI50 (NCI-H23) was 23.7 µM (inactive) and the GI50 (MDA-MB-231) was 18.4 µM (inactive). The GI50 (786-0) was 23.3 µM (inactive), the GI50 (HCT-15) was 16.7 µM and the GI50 (TK-10) was 16.7 µM (inactive). The GI50 (HL-60) was 38.5 µM (inactive), the GI50 (MCF7) was 19.2 µM (inactive) and the GI50 (SF-295) was > 100 µM (inactive). For the same molecule, the GI50 (KM12) was > 100 µM (inactive), the GI50 (SR) was 18.2 µM (inactive) and the GI50 (SK-OV-3) was 66.1 µM (inactive). The GI50 (UO-31) was 21.2 µM (inactive), the GI50 (NCI-H460) was > 100 µM (inactive) and the GI50 (NCI-H522) was 3.42 µM (inactive). For the same molecule, the GI50 (UACC-257) was > 100 µM (inactive), the GI50 (OVCAR-5) was 21.1 µM (inactive) and the GI50 (IGROV-1) was 20.5 µM (inactive). For the same molecule, the GI50 (SK-MEL-5) was 22.6 µM (inactive), the GI50 (HCT-116) was 18.2 µM (inactive) and the GI50 (EKVX) was 23.2 µM (inactive). For the same molecule, the GI50 (CAKI-1) was 19.6 µM (inactive), the GI50 (SF-539) was 18.2 µM (inactive) and the GI50 (Malme-3M) was 25.2 µM (inactive). The GI50 (DU-145) was 44.6 µM (inactive), the GI50 (U-251) was 17.6 µM (inactive) and the GI50 (OVCAR-8) was 17.5 µM (inactive). For the same molecule, the GI50 (RXF 393) was 19.3 µM (inactive), the GI50 (HCC 2998) was 20 µM (inactive) and the GI50 (SF-268) was 22.2 µM (inactive). For the same molecule, the GI50 (RPMI-8226) was 12.4 µM (inactive), the GI50 (HOP-62) was 32.1 µM (inactive) and the GI50 (OVCAR-3) was 25.8 µM (inactive).
